# In patent US20090036450A1, “PYRAZOLE COMPOUNDS AND USE THEREOF” (JAPAN TOBACCO, INC., priority 2006, published 2009):
# Target: T1, human liver glycogen phosphorylase (Homo sapiens, UniProt P06737)
# T1 construct: made in house; host or cells: Sf9 insect cells (suspension of disrupted cells, diluted in BES buffer, not purified)
# T1 sequence (P06737 1-847): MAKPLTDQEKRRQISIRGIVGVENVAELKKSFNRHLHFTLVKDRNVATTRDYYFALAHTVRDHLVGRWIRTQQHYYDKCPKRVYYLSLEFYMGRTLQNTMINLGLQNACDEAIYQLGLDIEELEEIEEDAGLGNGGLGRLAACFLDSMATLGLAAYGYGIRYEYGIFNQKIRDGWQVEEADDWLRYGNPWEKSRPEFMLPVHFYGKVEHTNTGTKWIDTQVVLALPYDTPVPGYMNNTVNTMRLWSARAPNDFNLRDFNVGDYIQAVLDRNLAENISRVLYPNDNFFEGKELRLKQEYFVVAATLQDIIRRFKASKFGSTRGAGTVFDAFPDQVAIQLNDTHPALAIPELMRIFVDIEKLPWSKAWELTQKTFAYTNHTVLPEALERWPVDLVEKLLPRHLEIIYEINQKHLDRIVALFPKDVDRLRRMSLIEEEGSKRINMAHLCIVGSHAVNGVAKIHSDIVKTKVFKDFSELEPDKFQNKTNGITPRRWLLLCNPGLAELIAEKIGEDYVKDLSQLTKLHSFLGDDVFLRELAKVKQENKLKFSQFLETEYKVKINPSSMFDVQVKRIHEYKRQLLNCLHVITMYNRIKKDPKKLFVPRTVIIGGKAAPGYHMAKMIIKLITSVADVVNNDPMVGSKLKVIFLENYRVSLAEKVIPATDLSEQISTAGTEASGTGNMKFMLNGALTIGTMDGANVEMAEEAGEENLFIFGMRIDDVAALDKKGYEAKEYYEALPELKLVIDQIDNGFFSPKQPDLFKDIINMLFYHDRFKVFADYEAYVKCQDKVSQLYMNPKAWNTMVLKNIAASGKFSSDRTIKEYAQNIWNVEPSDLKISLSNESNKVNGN
# Assay: Liver glycogen phosphorylase activity, forward reaction system (NADPH detection at 340 nm)
# Assay type: biochemical
# Details: enzyme inhibitory activity against recombinant human liver glycogen phosphorylase (Sf9 cell lysate), room temperature, 75 minutes
# Protocol: The glycogen phosphorylase activity was determined by a method using a forward reaction system.
# The following method was used to determine the glycogen phosphorylase activity using a forward reaction system. Glucose-1-phosphate generated from glycogen by glycogen phosphorylase was converted to glucono-δ-lactone-6-phosphate by transphosphorylation and dehydrogenation reactions using phosphoglucomutase and glucose-6-phosphate dehydrogenase (G6PDH). At this time, NADPH generated from NADP in the dehydrogenation reaction by G6PDH was detected.
# An enzyme solution of human liver glycogen phosphorylase was obtained by diluting with 100 mmol/L BES buffer (pH 6.8, containing 2 mmol/L EDTA) a suspension disrupted Sf9 cells in which a recombinant human liver glycogen phosphorylase was forcibly expressed. Phosphate buffer (16 mmol/L KH2PO4, containing 24 mmol/L Na2HPO4) was used as a substrate solution. A mixture of 8 U/mL phosphoglucomutase and 60 U/mL G6PDH was prepared with BES buffer. A reaction buffer (1.4 mmol/L NADP, 30 mmol/L MgCl2, 8 μmol/L glucose-1,6-diphosphate, 8 mg/mL glycogen, 40 mmol/L BES, containing 0.8 mmol/L EDTA) and a glucose solution (75 mmol/L glucose and 100 mmol/L BES, containing 2 mmol/L EDTA) were prepared. A test substance was dissolved in 1% DMSO aqueous solution.
# To a mixture of the glucose solution (20 μL), the substrate solution (20 μL), the reaction buffer (100 μL), and the test substance (20 μL), the recombinant human liver glycogen phosphorylase solution (20 μL), and a mixture (20 μL) of phosphoglucomutase and G6PDH were added to initiate an enzymatic reaction. To a control, 1% DMSO aqueous solution was added instead of the test substance. A solution to which the substrate was not added was used as a blank. After initiation of the reaction, absorbance at 340 nm was measured immediately. The reaction was performed at room temperature for 75 minutes, and then absorbance at 340 nm was measured again. The enzyme activity was obtained by deducting the change in absorbance of the blank for 75 minutes from the change in absorbance over 75 minutes. The inhibition rate (%) of the test substance was calculated by “(1−(enzyme activity of test substance)/(enzyme activity of control))×100”.
# “IC50” represents an enzyme inhibitory activity against human liver glycogen phosphorylase.
row,SMILES,IC50 [nM]
1,"Cc1nc(COCc2ccccc2)oc1CNC(=O)c1cc(NC(=O)c2cc(F)c(F)cc2Cl)[nH]n1 [Example 1-47, 5-(2-chloro-4,5-difluoro-benzoylamino)-1H-pyrazole-3-carboxylic acid (2-benzyloxymethyl-4-methyl-oxazol-5-ylmethyl)-amide]",< 100
2,"CCOC(=O)COCc1nc(C)c(CNC(=O)c2cc(NC(=O)c3cc(F)c(F)cc3Cl)[nH]n2)o1 [Example 1-48, 5-(2-chloro-4,5-difluoro-benzoylamino)-1H-pyrazole-3-carboxylic acid (2-ethoxycarbonylmethoxymethyl-4-methyl-oxazol-5-ylmethyl)-amide]",< 100
3,"Cc1nc(Sc2ccccc2)oc1CNC(=O)c1cc(NC(=O)c2cc(F)c(F)cc2Cl)[nH]n1 [Example 1-49, 5-(2-chloro-4,5-difluoro-benzoylamino)-1H-pyrazole-3-carboxylic acid (4-methyl-2-phenylsulfanyl-oxazol-5-ylmethyl)-amide]",< 100
4,"COC(=O)c1nc(C)c(CNC(=O)c2cc(NC(=O)c3cc(F)c(F)cc3Cl)[nH]n2)o1 [Example 1-50, 5-(2-chloro-4,5-difluoro-benzoylamino)-1H-pyrazole-3-carboxylic acid (2-methoxycarbonyl-4-methyl-oxazol-5-ylmethyl)-amide]",< 100
5,"CCOC(=O)c1oc(CNC(=O)c2cc(NC(=O)c3cc(F)c(F)cc3Cl)[nH]n2)nc1C [Example 1-51, 5-(2-chloro-4,5-difluoro-benzoylamino)-1H-pyrazole-3-carboxylic acid (5-ethoxycarbonyl-4-methyl-oxazol-2-ylmethyl)-amide]",< 100
6,"O=C(NCc1nnc(-c2ccc(Cl)cc2)o1)c1cc(NC(=O)c2cc(F)c(F)cc2Cl)[nH]n1 [Example 1-52, 5-(2-chloro-4,5-difluoro-benzoylamino)-1H-pyrazole-3-carboxylic acid [5-(4-chloro-phenyl)-[1,3,4]oxadiazol-2-ylmethyl]-amide]",< 100
7,"Cc1ccccc1-c1nnc(CNC(=O)c2cc(NC(=O)c3cc(F)c(F)cc3Cl)[nH]n2)o1 [Example 1-53, 5-(2-chloro-4,5-difluoro-benzoylamino)-1H-pyrazole-3-carboxylic acid [5-(2-methyl-phenyl)-[1,3,4]oxadiazol-2-ylmethyl]-amide]",< 100
8,"CN(C)c1ccc(-c2nnc(CNC(=O)c3cc(NC(=O)c4cc(F)c(F)cc4Cl)[nH]n3)o2)cc1 [Example 1-54, 5-(2-chloro-4,5-difluoro-benzoylamino)-1H-pyrazole-3-carboxylic acid [5-(4-dimethylamino-phenyl)-[1,3,4]oxadiazol-2-ylmethyl]-amide]",< 100
9,"O=C(NCc1nnc(-c2ccc(C(F)(F)F)cc2)o1)c1cc(NC(=O)c2cc(F)c(F)cc2Cl)[nH]n1 [Example 1-55, 5-(2-chloro-4,5-difluoro-benzoylamino)-1H-pyrazole-3-carboxylic acid [5-(4-trifluoromethyl-phenyl)-[1,3,4]oxadiazol-2-ylmethyl]-amide]",> 300
10,"O=C(NCc1nnc(-c2cccc([N+](=O)[O-])c2)o1)c1cc(NC(=O)c2cc(F)c(F)cc2Cl)[nH]n1 [Example 1-56, 5-(2-chloro-4,5-difluoro-benzoylamino)-1H-pyrazole-3-carboxylic acid [5-(3-nitro-phenyl)-[1,3,4]oxadiazol-2-ylmethyl]-amide]",< 100
11,"O=C(NCc1nnc(-c2cccc(O)c2)o1)c1cc(NC(=O)c2cc(F)c(F)cc2Cl)[nH]n1 [Example 1-57, 5-(2-chloro-4,5-difluoro-benzoylamino)-1H-pyrazole-3-carboxylic acid [5-(3-hydroxy-phenyl)-[1,3,4]oxadiazol-2-ylmethyl]-amide]",< 100
12,"O=C(NCc1nnc(-c2ccccc2O)o1)c1cc(NC(=O)c2cc(F)c(F)cc2Cl)[nH]n1 [Example 1-58, 5-(2-chloro-4,5-difluoro-benzoylamino)-1H-pyrazole-3-carboxylic acid [5-(2-hydroxy-phenyl)-[1,3,4]oxadiazol-2-ylmethyl]-amide]",< 100
13,"O=C(NCc1nnc(-c2cccc(Cl)c2)o1)c1cc(NC(=O)c2cc(F)c(F)cc2Cl)[nH]n1 [Example 1-59, 5-(2-chloro-4,5-difluoro-benzoylamino)-1H-pyrazole-3-carboxylic acid [5-(3-chloro-phenyl)-[1,3,4]oxadiazol-2-ylmethyl]-amide]",< 100
14,"COc1cccc(-c2nnc(CNC(=O)c3cc(NC(=O)c4cc(F)c(F)cc4Cl)[nH]n3)o2)c1 [Example 1-60, 5-(2-chloro-4,5-difluoro-benzoylamino)-1H-pyrazole-3-carboxylic acid [5-(3-methoxy-phenyl)-[1,3,4]oxadiazol-2-ylmethyl]-amide]",< 100
15,"COc1ccccc1-c1nnc(CNC(=O)c2cc(NC(=O)c3cc(F)c(F)cc3Cl)[nH]n2)o1 [Example 1-61, 5-(2-chloro-4,5-difluoro-benzoylamino)-1H-pyrazole-3-carboxylic acid [5-(2-methoxy-phenyl)-[1,3,4]oxadiazol-2-ylmethyl]-amide]",< 100
16,CCOC(=O)Cc1nnc(CNC(=O)c2cc(NC(=O)c3cc(F)c(F)cc3Cl)[nH]n2)o1 [Example 1-62],100 to 300
17,"Cc1c(CNC(=O)c2cc(NC(=O)c3cc(F)c(F)cc3Cl)[nH]n2)nnn1Cc1ccc(Cl)cc1 [Example 1-63, 5-(2-chloro-4,5-difluoro-benzoylamino)-1H-pyrazole-3-carboxylic acid [1-(4-chloro-benzyl)-5-methyl-1H-[1,2,3]triazol-4-ylmethyl]-amide]",< 100
18,"Cc1ccc(Cn2nnc(CNC(=O)c3cc(NC(=O)c4cc(F)c(F)cc4Cl)[nH]n3)c2C)cc1 [Example 1-64, 5-(2-chloro-4,5-difluoro-benzoylamino)-1H-pyrazole-3-carboxylic acid [5-methyl-1-(4-methyl-benzyl)-1H-[1,2,3]triazol-4-ylmethyl]-amide]",< 100
19,"Cc1nc(Cn2nnc(CNC(=O)c3cc(NC(=O)c4cc(F)c(F)cc4Cl)[nH]n3)c2C)cs1 [Example 1-65, 5-(2-chloro-4,5-difluoro-benzoylamino)-1H-pyrazole-3-carboxylic acid [5-methyl-1-(2-methyl-thiazol-4-ylmethyl)-1H-[1,2,3]triazol-4-ylmethyl]-amide]",< 100
20,"Cc1cccc(-n2nc(C)c(CNC(=O)c3cc(NC(=O)c4cc(F)c(F)cc4Cl)[nH]n3)c2C)c1 [Example 1-66, 5-(2-chloro-4,5-difluoro-benzoylamino)-1H-pyrazole-3-carboxylic acid [3,5-dimethyl-1-(3-methyl-phenyl)-1H-pyrazol-4-ylmethyl]-amide]",< 100
21,"O=C(NCc1cnn(-c2ccc(F)cc2)c1C1CC1)c1cc(NC(=O)c2cc(F)c(F)cc2Cl)[nH]n1 [Example 1-67, 5-(2-chloro-4,5-difluoro-benzoylamino)-1H-pyrazole-3-carboxylic acid [5-cyclopropyl-1-(4-fluoro-phenyl)-1H-pyrazol-4-ylmethyl]-amide]",< 100
22,"Cc1ncc(CNC(=O)c2cc(NC(=O)c3cc(F)c(F)cc3Cl)[nH]n2)c(C2CC2)n1 [Example 1-68, 5-(2-chloro-4,5-difluoro-benzoylamino)-1H-pyrazole-3-carboxylic acid (4-cyclopropyl-2-methyl-pyrimidin-5-ylmethyl)-amide]",< 100
